According to the NIST ThermoML archive (doi:10.1021/je200790q):

Columns and labels:
[1] = 101.33 kPa, Liquid; for mass density: Vibrating tube method
[2] = refractive index (Na D-line) (dimensionless); details: 101.33 kPa, Liquid, Standard Abbe refractometry
[3] = molar heat capacity at constant pressure; details: 298.15 K; 101.33 kPa; Liquid; Drop calorimetry

CCn1cc[n+](C)c1.Cc1ccc(S(=O)(=O)[O-])cc1 [1-ethyl-3-methylimidazolium 4-methylbenzenesulfonate]
Details	mass density, [1] [kg/m3]	refractive index, [2]	viscosity, [1] [mPa·s]
303.15 K	1223.4	–	1417.4
308.15 K	1220	–	842.45
313.15 K	1216.6	–	531.73
318.15 K	1213.2	–	351.97
322.73 K	–	1.53844	–
323.15 K	1210	–	242.85
325.68 K	–	1.53757	–
327.64 K	–	1.53703	–
328.15 K	1206.8	–	173.69
329.61 K	–	1.53649	–
332.55 K	–	1.5357	–
333.15 K	1203.7	–	128.18
334.52 K	–	1.53509	–
336.48 K	–	1.53461	–
338.15 K	1200.6	–	97.21
338.44 K	–	1.53409	–
340.41 K	–	1.53356	–
342.37 K	–	1.53304	–
343.15 K	1197.6	–	75.51
348.15 K	1194.5	–	59.9
353.15 K	1191.5	–	48.42
358.15 K	1188.5	–	39.81
363.15 K	1185.5	–	33.22

CC(=O)[O-].CCn1cc[n+](C)c1 [1-ethyl-3-methylimidazolium acetate]
Details	mass density, [1] [kg/m3]	refractive index, [2]	viscosity, [1] [mPa·s]
278.15 K	1112.4	–	723.62
283.15 K	1108.9	–	451.35
288.15 K	1105.6	–	295.7
288.37 K	–	1.50371	–
293.15 K	1102.4	–	202.29
293.28 K	–	1.50233	–
298.15 K	1099.3	–	143.61
298.19 K	–	1.50091	–
303.1 K	–	1.49949	–
303.15 K	1096.2	–	105.3
308.01 K	–	1.49807	–
308.15 K	1093.6	–	79.32
312.91 K	–	1.49666	–
313.15 K	1090	–	61.33
318.15 K	1087	–	48.41
323.15 K	1084	–	38.95
328.15 K	1081	–	31.87
333.15 K	1078	–	26.47
338.15 K	1075	–	22.27
343.15 K	1072.1	–	18.96
348.15 K	1069.2	–	16.31
353.15 K	1066.3	–	14.16
358.15 K	1063.4	–	12.41
363.15 K	1060.6	–	10.95

Details	molar heat capacity at constant pressure [J/K/mol]
[3]	321.9

CCn1cc[n+](C)c1.N#CN=C=[N-] [1-ethyl-3-methylimidazolium dicyanamide]
Details	mass density, [1] [kg/m3]	refractive index, [2]	viscosity, [1] [mPa·s]
278.15 K	1117.9	–	32.51
283.15 K	1114.3	–	26.67
288.15 K	1110.9	–	22.23
288.37 K	–	1.51745	–
293.15 K	1107.4	–	18.79
293.28 K	–	1.51585	–
298.15 K	1104	–	16.09
298.19 K	–	1.51428	–
303.1 K	–	1.51269	–
303.15 K	1100.6	–	13.92
308.01 K	–	1.51112	–
308.15 K	1097.3	–	12.16
312.91 K	–	1.50956	–
313.15 K	1094	–	10.72
318.15 K	1090.7	–	9.519
323.15 K	1087.4	–	8.518
328.15 K	1084.2	–	7.673
333.15 K	1081	–	6.951
338.15 K	1077.8	–	6.327
343.15 K	1074.7	–	5.788
348.15 K	1071.6	–	5.319
353.15 K	1068.5	–	4.909
358.15 K	1065.4	–	4.548
363.15 K	1062.3	–	4.229

Details	molar heat capacity at constant pressure [J/K/mol]
[3]	314.63

CCn1cc[n+](C)c1.COP(=O)([O-])OC [1-ethyl-3-methylimidazolium dimethylphosphate]
Details	mass density, [1] [kg/m3]	refractive index, [2]	viscosity, [1] [mPa·s]
298.19 K	–	1.48175	–
303.1 K	–	1.4805	–
303.15 K	1213.9	–	192.68
308.01 K	–	1.47909	–
308.15 K	1210.5	–	144.32
312.91 K	–	1.47771	–
313.15 K	1207.1	–	110.51
317.82 K	–	1.47636	–
318.15 K	1203.8	–	86.32
322.73 K	–	1.47511	–
323.15 K	1200.5	–	68.64
327.64 K	–	1.47384	–
328.15 K	1197.2	–	55.46
333.15 K	1193.9	–	45.47
338.15 K	1190.6	–	37.78
343.15 K	1187.4	–	31.76
348.15 K	1184.2	–	26.99
353.15 K	1181	–	23.17
358.15 K	1177.8	–	20.07
363.15 K	1174.7	–	17.53

Details	molar heat capacity at constant pressure [J/K/mol]
[3]	411.78

CCn1cc[n+](C)c1.CS(=O)(=O)[O-] [1-ethyl-3-methylimidazolium methanesulfonate]
Details	mass density, [1] [kg/m3]	refractive index, [2]	viscosity, [1] [mPa·s]
278.15 K	1257.1	–	805.33
283.15 K	1253.3	–	505.92
288.15 K	1249.5	–	336.04
288.37 K	–	1.49823	–
293.15 K	1245.9	–	232.44
293.28 K	–	1.49682	–
298.15 K	1242.4	–	166.59
298.19 K	–	1.49542	–
303.1 K	–	1.49399	–
303.15 K	1239	–	123.14
308.01 K	–	1.49254	–
308.15 K	1235.6	–	93.48
312.91 K	–	1.49114	–
313.15 K	1232.2	–	72.64
318.15 K	1228.8	–	57.62
323.15 K	1225.5	–	46.54
328.15 K	1222.2	–	38.2
333.15 K	1218.9	–	31.81
338.15 K	1215.6	–	26.84
343.15 K	1212.3	–	22.9
348.15 K	1209.1	–	19.75
353.15 K	1205.9	–	17.19
358.15 K	1202.8	–	15.08
363.15 K	1199.7	–	13.33

Details	molar heat capacity at constant pressure [J/K/mol]
[3]	345.52

CCn1cc[n+](C)c1.CO[PH](=O)[O-] [1-ethyl-3-methylimidazolium methyl phosphonate]
Details	mass density, [1] [kg/m3]	refractive index, [2]	viscosity, [1] [mPa·s]
278.15 K	1222.2	–	916.06
283.15 K	1218.6	–	598.79
288.15 K	1215.1	–	406.82
288.37 K	–	1.49534	–
293.15 K	1211.7	–	285.8
293.28 K	–	1.4939	–
298.15 K	1208.3	–	206.76
298.19 K	–	1.49249	–
303.1 K	–	1.49115	–
303.15 K	1205	–	153.63
308.01 K	–	1.48982	–
308.15 K	1201.8	–	116.89
312.91 K	–	1.48854	–
313.15 K	1198.6	–	90.83
317.82 K	–	1.48714	–
318.15 K	1195.5	–	71.92
323.15 K	1192.3	–	57.94
328.15 K	1189.2	–	47.38
333.15 K	1186.1	–	39.29
338.15 K	1183	–	32.99
343.15 K	1179.9	–	28.02
348.15 K	1176.9	–	24.05
353.15 K	1173.9	–	20.83
358.15 K	1170.9	–	18.2
363.15 K	1167.9	–	16.03

Details	molar heat capacity at constant pressure [J/K/mol]
[3]	354.63

CCn1cc[n+](C)c1.N#C[S-] [1-ethyl-3-methylimidazolium thiocyanate]
Details	mass density, [1] [kg/m3]	refractive index, [2]	viscosity, [1] [mPa·s]
278.15 K	1129.7	–	54.57
283.15 K	1126.5	–	43.51
288.15 K	1123.3	–	35.36
293.15 K	1120.1	–	29.21
298.15 K	1117	–	24.5
303.15 K	1113.9	–	20.79
308.15 K	1110.8	–	17.86
313.15 K	1107.8	–	15.49
318.15 K	1104.8	–	13.56
323.15 K	1101.8	–	11.97
328.15 K	1098.8	–	10.64
332.55 K	–	1.53909	–
333.15 K	1095.9	–	9.528
334.52 K	–	1.5385	–
336.48 K	–	1.53794	–
338.15 K	1093	–	8.582
338.44 K	–	1.53739	–
340.41 K	–	1.53682	–
342.37 K	–	1.53636	–
343.15 K	1090.1	–	7.773
348.15 K	1087.2	–	7.076
353.15 K	1084.3	–	6.472
358.15 K	1081.5	–	5.945
363.15 K	1078.7	–	5.485

Details	molar heat capacity at constant pressure [J/K/mol]
[3]	281.45

CCn1cc[n+](C)c1.O=S(=O)([O-])C(F)(F)F [1-ethyl-3-methylimidazolium trifluoromethanesulfonate]
Details	mass density, [1] [kg/m3]	refractive index, [2]	viscosity, [1] [mPa·s]
278.15 K	1403.3	–	99.83
283.15 K	1398.9	–	78.93
288.15 K	1394.5	–	63.51
288.37 K	–	1.43572	–
293.15 K	1390.2	–	51.87
293.28 K	–	1.43432	–
298.15 K	1385.9	–	42.94
298.19 K	–	1.43296	–
303.1 K	–	1.43159	–
303.15 K	1381.6	–	35.98
308.01 K	–	1.43025	–
308.15 K	1377.3	–	30.48
312.91 K	–	1.42886	–
313.15 K	1373.1	–	26.09
318.15 K	1368.9	–	22.53
323.15 K	1364.8	–	19.62
328.15 K	1360.6	–	17.21
333.15 K	1356.5	–	15.21
338.15 K	1352.5	–	13.52
343.15 K	1348.4	–	12.1
348.15 K	1344.4	–	10.88
353.15 K	1340.4	–	9.845
358.15 K	1336.4	–	8.948
363.15 K	1332.5	–	8.169

Details	molar heat capacity at constant pressure [J/K/mol]
[3]	362.8
